Results reported in publication PMC10080691, “Enzyme-Responsive Double-Locked Photodynamic Molecular Beacon for Targeted Photodynamic Anticancer Therapy” (Journal of the American Chemical Society, 2023).

Key:
A549 cells = experiment: Intracellular ROS generation (H2DCFDA); assay type: cell-based, human; conditions: 2 μM 1 h + 6 h, light λ > 610 nm, 23 mW cm-2, 14 J cm-2
Experimental: The enzyme-responsive intracellular ROS generation of 1 was then examined in A549 and HeLa cells using 2′,7′-dichlorodihydrofluorescein diacetate (H2DCFDA) as the ROS fluorescent probe. Once H2DCFDA is internalized, it will be deacetylated by the intracellular esterase, followed by oxidation by the intracellular ROS, leading to the formation of the highly fluorescent 2′,7′-dichlorofluorescein (DCF).[79] The cells were first pretreated with SB-3CT (10 μM) and/or CA-074 Me (25 μM) or simply the neat medium for 2 h, followed by incubation with 1 (2 μM) for a further 1 h. As a negative control, the cells were simply incubated with 14 (2 μM) for 1 h. After being rinsed with PBS, the cells were incubated in the medium for a further 6 h. Finally, the cells were incubated with H2DCFDA (10 μM) for 30 min, followed by dark or light (λ > 610 nm, 23 mW cm^–2, 14 J cm^–2) treatment. […] It can be seen that for the MMP-2-positive A549 cells, the fluorescence due to DCF was in the following order: 1 without pretreatment of the cells with the two inhibitors > 1 with pretreatment of the cells with either one of the two inhibitors > 1 with pretreatment of the cells with both inhibitors ≈ 14. […] This trend, which reflects the extent of recovery of ROS generation, was in accord with that of the fluorescence recovery inside the cells (Figure 5c,d). For the MMP-2-negative HeLa cells, the intracellular fluorescence remained very weak even for 1 without pretreatment of the cells with the two inhibitors because of the intrinsically low MMP levels in the cells. […]
or ER-Tracker Green (Thermo Fisher Scientific Inc., E34251) (1 μM for 15 min) in a serum-free medium at 37 °C. […] All the trackers were excited at 488 nm and their fluorescence was monitored at 500−570 nm, while the DSBDP moiety was excited at 638 nm and its fluorescence was monitored at 650−750nm. The images were digitized and analyzed using a Leica Application Suite X software. […]
at 500−550 nm. The images were digitized and analyzed using a Leica Application Suite X […]

[1] = system: A549 tumor-bearing nude mice; experiment: In vivo PDT; parameters: species or system Balb/c nude mice; conditions: for H&E staining of major organs, Day 14 / H&E staining of tumor, Day 14 / change in body weight over 14 days: intratumoral 20 nmol + laser 680 nm, 180 J cm-2; for change in body weight over 14 days / tumor size over 14 days: n = 4; for tumor size over 14 days: intratumoral 20 nmol, laser 680 nm, 0.3 W cm-2, 10 min (180 J cm-2) at 6 h post-injection
Experimental: To further examine the in vivo PDT efficacy of 1, A549 tumor-bearing nude mice were first intratumorally injected with 1 or the non-cleavable control 14 (20 nmol) in 20 μL of distilled water containing 7.5% dimethyl sulfoxide (DMSO) and 0.5% Tween 80 (v/v). After 6 h, when the difference in tumoral fluorescence intensity was the largest between the two conjugates (Figure 7b), the tumor was irradiated with a diode laser at 680 nm (0.3 W cm^–2) for 10 min. As another negative control, another group of mice were injected with PBS only without the laser treatment. The tumor size of all mice was monitored continuously for 14 days after the different treatments.
The body weight of the mice was also monitored during the course of these treatments (Figure 7e). […] In addition, the PDT effect on the tumor and major organs was further investigated by hematoxylin and eosin (H&E) staining.
A549 tumor-bearing nude mice were prepared as described above. The length and width of the tumor were measured using a micrometer digital caliper (SCITOP Systems). The tumor volume (mm3) was calculated using the formula: tumor volume = (length × width2)/2. Once the tumors had grown to a size of 80 –100 mm3, 1 or 14 (20 nmol) dissolved in 20 μL of distilled water containing 7.5% DMSO and 0.5% Tween 80 (v/v) was injected to the tumor -bearing mice through intratu moral injection. At 6 h post-injection, the tumor was illuminated with a diode […]
The tumor size o f the nude mice was monitored periodically for the next 14 days. The tumor volumes were also compared with a PBS control group of mice without the light treatment.
Four mice were used for each group. On Day 14 after the PDT treatment, the mice were sacrificed, and the tumor and major organs were harvested. The tissues were fixed with 4% […]
and embedded in paraffin. […]

## CCN(CC)c1ccc2nc3ccc(/N=N/c4ccc(N(C)CCCNC(=O)OC[C@@H]5[C@@H]6CCc7nnn(CC(=O)NCCCC[C@@H]8NC(=O)CNC(=O)[C@H](CCCCN)NC(=O)[C@H](CCCNC(=N)N)NC(=O)[C@H](C(C)C)NC(=O)CNC(=O)[C@H](CC(C)C)NC(=O)[C@@H]9CCCN9C(=O)[C@H](CCCCN)NC(=O)[C@@H](N)CSCc9cc(COc%10ccc(C%11=C%12C(C)=C(I)C(/C=C/c%13ccc(OCCOCCOCCOC)cc%13)=[N+]%12[B-](F)(F)n%12c(/C=C/c%13ccc(OCCOCCOCCOC)cc%13)c(I)c(C)c%12%11)cc%10)cc(c9)CSC[C@@H](C(N)=O)NC(=O)[C@H](CCCCN)NC(=O)[C@H](CCCCN)NC(=O)CNC(=O)[C@H](CC(C)C)NC(=O)[C@H](Cc9ccccc9)NC(=O)CNC(=O)[C@H](CCCCN)NC(=O)CNC8=O)c7CC[C@@H]65)cc4)cc3[n+](-c3ccccc3)c2c1 [compound 1]
A549 cells; pretreatment with both SB-3CT (10 μM) and CA-074 Me (25 μM) 2 h
  intracellular ROS generation (DCF fluorescence): could hardly be observed
[1]
  H&E staining of major organs, Day 14: no apparent damage
  H&E staining of tumor, Day 14: significant cellular damage and necrosis
  change in body weight over 14 days: negligible change
  tumor size over 14 days: greatly reduced

## CCN(CC)c1ccc2nc3ccc(/N=N/c4ccc(N(C)CCCNC(=O)OC[C@@H]5[C@@H]6CCc7nnn(CC(=O)NCCCC[C@@H]8NC(=O)CNC(=O)[C@H](CCCCN)NC(=O)CNC(=O)CNC(=O)CNC(=O)CNC(=O)CNC(=O)[C@H](CCCCN)NC(=O)[C@@H](N)CSCc9cc(COc%10ccc(C%11=C%12C(C)=C(I)C(/C=C/c%13ccc(OCCOCCOCCOC)cc%13)=[N+]%12[B-](F)(F)n%12c(/C=C/c%13ccc(OCCOCCOCCOC)cc%13)c(I)c(C)c%12%11)cc%10)cc(c9)CSC[C@@H](C(N)=O)NC(=O)[C@H](CCCCN)NC(=O)[C@H](CCCCN)NC(=O)CNC(=O)CNC(=O)CNC(=O)CNC(=O)[C@H](CCCCN)NC(=O)CNC8=O)c7CC[C@@H]65)cc4)cc3[n+](-c3ccccc3)c2c1 [compound 14]
A549 cells; no inhibitor pretreatment
  intracellular ROS generation (DCF fluorescence): could hardly be observed
[1]
  H&E staining of major organs, Day 14: no apparent damage
  H&E staining of tumor, Day 14: no apparent damage
  change in body weight over 14 days: negligible change
  tumor size over 14 days: grew continuously
